Test results as given in article PMC4754833, “Rilpivirine analogs potently inhibit drug-resistant HIV-1 mutants” (Retrovirology, 2016).

What was measured:
[1] = system: HIV-1 RT mutant M230L; assay: single round infection assay, M230L; type: cell-based; conditions: for IC50: ± SD, n=4, limit of detection 100 nM; for fold-change of IC50 of the mutant relative to WT: M230L vs WT
Protocol: (§1) The human osteosarcoma cell line, HOS, was obtained from Dr. Richard Schwartz (Michigan State University, East Lansing, MI) and grown in Dulbecco’s modified Eagle’s medium (Invitrogen, Carlsbad, CA) supplemented with 5 % (v/v) fetal bovine serum, 5 % newborn calf serum, and penicillin (50 units/ml) plus streptomycin (50 µg/ml; Quality Biological, Gaithersburg, MD). Virion production and single-round infectivity assays were used to determine antiviral activity (IC50 values) of the compounds as previously described.
(§2) pNLNgoMIVR-ΔEnv.LUC has been described previously. The RT open reading frame was removed from pNLNgoMIVR-ΔEnv.LUC (digestion with SpeI and SalI) and inserted between the SpeI and SalI sites of pBluescript II KS+. Using that construct as the wild-type template, we prepared the following HIV-1 RT mutants using the QuikChange II XL (Stratagene, La Jolla, CA) site-directed mutagenesis protocol kit: L100I, K103N, Y181C, Y188L, H221Y, K103N/Y181C, G190A, G190S, M230L, P236L, L100I/K103N, K103N/P225H, V106A/G190A/F227L, V106A, L234I, V106A/F227L, V106A/L234I, V106A/F227L/L234I, E40K, D67E, K101E, V111A, E138K, M184I, M184V, K101E/M184I, K101E/M184V, E138K/M184I, E138K/M184V, K101P, Y181I, and K101P/V179I. The following sense oligonucleotides were used with matching cognate antisense oligonucleotides (not shown) (Integrated DNA Technologies, Coralville, IA) in the mutagenesis: L100I, 5′-[…]-3′; L100I 2-103, 5′-[…]-3′; K103N, 5′-[…]-3′; Y181C, 5′-[…]-3′; Y188L, 5′-[…]-3′; H221Y, 5′-[…]-3′; G190A, 5′-[…]-3′; G190S, 5′-[…]-3′; P225H, 5′-[…]-3′; F227, 5′-[…]-3′; M230L, 5′-[…]-3′; P236L, 5′-[…]-3′; V106A, 5′-[…]-3′; L234I, 5′-[…]-3′; E40K, 5′-[…]-3′; D67E, 5′-[…]-3′; K101E, 5′-[…]-3′; V111A, 5′-[…]-3′; E138K, 5′-[…]-3′; M184I, 5′-[…]-3′; M184V, 5′-[…]-3′; K101P, 5′-[…]-3′; Y181I, 5′-[…]-3′; K101P/V179I, 5′-[…]-3′. The double mutants K103N/Y181C, K103N/P225H, and L100I/K103N were made using the previously generated K103N mutant and the appropriate oligonucleotides to add the second mutation, Y181C, P225, and L100I respectively. The double mutants V106A/F227L and V106A/L234I were prepared using the previously generated V106A mutant and the appropriate oligonucleotides to add the second mutation, F227L and L234I, respectively. The double mutants K101E/M184I and K101E/M184V were constructed using the previously generated K101E mutant and the appropriate oligonucleotides to add the second mutation, M184I and M184V, respectively. The double mutants E138K/M184I and E138K/M184V were constructed using the previously generated E138K mutant and the appropriate oligonucleotides for the second mutation, M184I and M184V, respectively. The triple mutant V106A/F227L/L234I was made using the previously generated V106A/F227L double mutant and the appropriate oligonucleotides for the third mutation, L234I. The triple mutant V106A/G190A/F227L was constructed in a series of steps using the previously generated V106A mutant and the appropriate oligonucleotides for the second mutation, G190A, to generate the double mutant V106A/G190A, and then the triple mutant was made using double mutant V106A/G190A and oligonucleotides for the third mutation, F227L. The DNA sequence of each construct was verified by DNA sequence determination. The sequences encoding the mutant RTs were then subcloned into pNLNgoMIVR-ΔEnv.LUC (between the KpnI and SalI sites) to produce the mutant HIV-1 constructs. These DNA sequences were also checked independently by DNA sequence determination.
(§3) 10.1186/s12977-016-0244-2 The IC50 values (nM) of RPV and the RPV analogs were determined against the NNRTI resistant mutants were measured by using a single round infection assay, n = 4. The concentrations (nM) are measured by reductions in luciferase reporter activity followed by the standard deviations. […]

[2] = system: HIV-1 RT mutant V106A; assay: single round infection assay, V106A; type: cell-based; conditions: V106A vs WT
Protocol: as §1, §2, §3

[3] = system: HIV-1 RT mutant Y181C; design: method as in PMID 23217210; conditions: previous study; cited from earlier work
[4] = system: HIV-1 RT mutant V106A/G190A/F227L; assay: single round infection assay, V106A/G190A/F227L; type: cell-based; conditions: for IC50: Human immunodeficiency virus 1; for fold-change of IC50 of the mutant relative to WT: V106A/G190A/F227L vs WT
Protocol: as §1, §2, §3

[5] = system: HIV-1 RT mutant K103N; design: method as in PMID 23217210; conditions: previous study; cited from earlier work
[6] = system: HIV-1 RT mutant Y181I; assay: single round infection assay, Y181I; type: cell-based; conditions: for IC50: Human immunodeficiency virus 1; for fold-change of IC50 of the mutant relative to WT: Y181I vs WT
Protocol: as §1, §2, §3

[7] = system: WT HIV-1; conditions: previous study; cited from earlier work
[8] = system: HIV-1 RT mutant K101E/M184I; assay: single round infection assay, K101E/M184I; type: cell-based; conditions: for fold-change of IC50 of the mutant relative to WT: K101E/M184I vs WT; for IC50: ± SD, n=4
Protocol: as §1, §2, §3

[9] = system: HIV-1 RT mutant P236L; assay: single round infection assay, P236L; type: cell-based; conditions: Human immunodeficiency virus 1
Protocol: as §1, §2, §3

[10] = system: HIV-1 RT mutant E138K; assay: single round infection assay, E138K; type: cell-based; conditions: for fold-change of IC50 of the mutant relative to WT: E138K vs WT; for IC50: ± SD, n=4
Protocol: as §1, §2, §3

[11] = system: HIV-1 RT mutant E138K/M184I; assay: single round infection assay, E138K/M184I; type: cell-based; conditions: for fold-change of IC50 of the mutant relative to WT: E138K/M184I vs WT; for IC50: ± SD, n=4
Protocol: as §1, §2, §3

[12] = system: HIV-1 RT mutant V106A/F227L/L234I; assay: single round infection assay, V106A/F227L/L234I; type: cell-based; conditions: V106A/F227L/L234I vs WT
Protocol: as §1, §2, §3

[13] = Human immunodeficiency virus 1, M230L
[14] = Human immunodeficiency virus 1, E138K
[15] = Human immunodeficiency virus 1, K101E/M184I

| Structure (SMILES) | IC50 [1, 13] [nM] | fold-change of IC50 of the mutant relative to WT [1] | IC50 [3] [nM] | IC50 [4] [nM] | fold-change of IC50 of the mutant relative to WT [4] | IC50 [5] [nM] | IC50 [6] [nM] | fold-change of IC50 of the mutant relative to WT [6] | IC50 [7] [nM] | fold-change of IC50 of the mutant relative to WT [8] | IC50 [9] [nM] | fold-change of IC50 of the mutant relative to WT [10] | IC50 ([10]; E138K) [nM] | IC50 [10, 14] [nM] | fold-change of IC50 of the mutant relative to WT [11] | IC50 ([1]; M230L) [nM] | IC50 [8, 15] [nM] | IC50 ([8]; K101E/M184I) [nM] | fold-change of IC50 of the mutant relative to WT [12] | further results |
| --- | --- | --- | --- | --- | --- | --- | --- | --- | --- | --- | --- | --- | --- | --- | --- | --- | --- | --- | --- | --- |
| Cc1cc(/C=C/C#N)cc(C)c1Nc1nc(Nc2ccc(C(F)(F)F)cc2)c2nc[nH]c2n1 [compound 15] | 16.8 | 10 | < 7 | 2.6 ± 0.17 | < 2 | < 7 | 50.2 | 30 | < 7 | < 2 | 0.9 ± 0.08 | 4 | 6.3 ± 1.3 | < 6 | < 2 |  |  |  |  | fold-change of IC50 of the mutant relative to WT [2]: < 2 |
| Cc1cc(/C=C/C#N)cc(C)c1Nc1nc(Nc2ccc(C#N)cc2)ncc1N [compound 7] | < 6.1 | 5 | < 7 | 1.4 ± 0.4 | < 2 | < 7 | 19 | 24 | < 7 | < 2 | 0.22 ± 0.06 | 2 | 1.6 ± 0.07 | < 2.5 | 4 | 4 ± 2 | < 2.5 | 1.3 ± 0.6 |  | IC50 ([11]; E138K/M184I): 2.9 ± 0.6 nM; IC50 ([11]; Human immunodeficiency virus 1, E138K/M184I): < 2.5 nM |
| Cc1cc(/C=C/C#N)cc(C)c1-n1cnc2cnc(Nc3ccc(C#N)cc3)nc21 [compound 27] | < 6.1 | 7 | < 7 | 2.2 ± 1.2 | 4 | < 7 | 23.1 | 40 | < 7 |  | 0.2 ± 0.04 | 2 | 1.3 ± 0.14 | < 2.5 | < 2 | 4.2 ± 0.5 |  |  | < 2 |  |
| Cc1cc(/C=C/C#N)cc(C)c1Nc1ncc([N+](=O)[O-])c(Nc2ccc(C#N)cc2)n1 [compound 8] | 11.9 | 7 | < 7 | 2.8 ± 0.42 | < 2 | < 7 | 74.8 | 47 | < 7 | 4 | 0.61 ± 0.07 | 2 | 3.4 | < 6 | < 2 |  | < 6 | 6 ± 1.6 | < 2 |  |
